{
  "source": "paper PMC6684654",
  "about": "(Nature Communications, 2019)",
  "key": {"E. coli ATCC25922 [1]": {"system": "E. coli ATCC25922", "experiment": "MIC, broth microdilution", "type": "cell-based", "details": "Escherichia coli, ATCC25922; MHB, 5 × 10^5 CFU/mL, 16 h, 37 °C; read-out: MIC", "excerpt": "(§1) MIC values were identified through microdilution in sterilized 96-well polypropylene microtiter plates according to the broth microdilution guideline of the Clinical and Laboratory Standards Institute[30]. The test medium was Mueller–Hinton broth (MHB), and the strain concentrations were adjusted to 5 × 10^5 CFU/mL."}, "E. coli ATCC35218": {"system": "E. coli ATCC35218", "experiment": "MIC, broth microdilution", "type": "cell-based", "details": "Escherichia coli, ATCC35218; MHB, 5 × 10^5 CFU/mL, 16 h, 37 °C; read-out: MIC", "excerpt": "as §1"}, "K. pneumoniae ATCC13883 [2]": {"system": "K. pneumoniae ATCC13883", "experiment": "MIC, broth microdilution", "type": "cell-based", "details": "Klebsiella pneumoniae, ATCC13883; MHB, 5 × 10^5 CFU/mL, 16 h, 37 °C; read-out: MIC", "excerpt": "as §1"}, "NDM-1 E. coli XJ141015 [3]": {"system": "NDM-1 E. coli XJ141015", "experiment": "MIC, broth microdilution", "type": "cell-based", "details": "Escherichia coli, 16 h", "excerpt": "as §1"}, "NDM-1 E. coli XJ141026 [4]": {"system": "NDM-1 E. coli XJ141026", "experiment": "MIC, broth microdilution", "type": "cell-based", "details": "Escherichia coli, 16 h", "excerpt": "as §1"}, "NDM-1 E. coli XJ141047 [5]": {"system": "NDM-1 E. coli XJ141047", "experiment": "MIC, broth microdilution", "type": "cell-based", "details": "Escherichia coli, 16 h", "excerpt": "as §1"}, "[6]": {"system": "NDM-1 K. pneumoniae XJ155017", "experiment": "MIC, broth microdilution", "type": "cell-based", "details": "Klebsiella pneumoniae, 16 h", "excerpt": "as §1"}, "[7]": {"system": "NDM-1 K. pneumoniae XJ155018", "experiment": "MIC, broth microdilution", "type": "cell-based", "details": "Klebsiella pneumoniae, 16 h", "excerpt": "as §1"}, "[8]": {"system": "NDM-1 K. pneumoniae XJ155019", "experiment": "MIC, broth microdilution", "type": "cell-based", "details": "Klebsiella pneumoniae, 16 h", "excerpt": "as §1"}, "[9]": {"system": "NDM-1 K. pneumoniae XJ155020", "experiment": "MIC, broth microdilution", "type": "cell-based", "details": "Klebsiella pneumoniae, 16 h", "excerpt": "as §1"}, "E. coli ATCC25922 [10]": {"system": "E. coli ATCC25922", "experiment": "Antibiotic susceptibility (MIC), automated identification system", "type": "cell-based", "details": "Supplementary Table 1", "excerpt": "(§2) Clinical isolate strains were identified and screened by the Phoenix 100 automated bacterial identification system to rapidly detect antimicrobial resistance. Total DNA was extracted by the TIANamp Bacteria DNA Kit according to the manufacturer’s protocol. The presence of blaNDM-1 was confirmed using a diagnostic kit for NDM-1 (Puruikang Bio Inc., Shenzhen, China) based on fluorescent quantitative polymerase chain reaction assay. According to the instruction, Ct values of less than 37 were considered positive."}, "K. pneumoniae ATCC13883 [11]": {"system": "K. pneumoniae ATCC13883", "experiment": "Antibiotic susceptibility (MIC), automated identification system", "type": "cell-based", "details": "Supplementary Table 2", "excerpt": "as §2"}, "NDM-1 E. coli XJ141015 [12]": {"system": "NDM-1 E. coli XJ141015", "experiment": "Antibiotic susceptibility (MIC), automated identification system", "type": "cell-based", "details": "Supplementary Table 1", "excerpt": "as §2"}, "NDM-1 E. coli XJ141026 [13]": {"system": "NDM-1 E. coli XJ141026", "experiment": "Antibiotic susceptibility (MIC), automated identification system", "type": "cell-based", "details": "Supplementary Table 1", "excerpt": "as §2"}, "NDM-1 E. coli XJ141047 [14]": {"system": "NDM-1 E. coli XJ141047", "experiment": "Antibiotic susceptibility (MIC), automated identification system", "type": "cell-based", "details": "Supplementary Table 1", "excerpt": "as §2"}, "[15]": {"system": "NDM-1 K. pneumoniae XJ155017", "experiment": "Antibiotic susceptibility (MIC), automated identification system", "type": "cell-based", "details": "Supplementary Table 2", "excerpt": "as §2"}, "[16]": {"system": "NDM-1 K. pneumoniae XJ155018", "experiment": "Antibiotic susceptibility (MIC), automated identification system", "type": "cell-based", "details": "Supplementary Table 2", "excerpt": "as §2"}, "[17]": {"system": "NDM-1 K. pneumoniae XJ155019", "experiment": "Antibiotic susceptibility (MIC), automated identification system", "type": "cell-based", "details": "Supplementary Table 2", "excerpt": "as §2"}, "[18]": {"system": "NDM-1 K. pneumoniae XJ155020", "experiment": "Antibiotic susceptibility (MIC), automated identification system", "type": "cell-based", "details": "Supplementary Table 2", "excerpt": "as §2"}, "NDM-1": {"molecular_target": "NDM-1 (Klebsiella pneumoniae, UniProt C7C422)", "sequence (C7C422 20-270, looked up, natural form)": "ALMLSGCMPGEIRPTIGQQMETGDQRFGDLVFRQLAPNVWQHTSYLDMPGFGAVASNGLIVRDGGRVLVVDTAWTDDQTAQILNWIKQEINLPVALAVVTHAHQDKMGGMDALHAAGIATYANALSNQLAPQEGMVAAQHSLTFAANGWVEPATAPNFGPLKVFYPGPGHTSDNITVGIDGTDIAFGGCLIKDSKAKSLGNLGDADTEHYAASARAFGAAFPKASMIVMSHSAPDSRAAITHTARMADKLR", "experiment": "Zn2+ restoration assay", "type": "biochemical", "method": "After incubating for 20 min at 30 °C, 50 μL of the mixture was added to the 96-well plate. […] The absorbance at 300 nm was monitored for 30 min at 30 °C. Percent residual activity was calculated from the thanatin-free control."}},
  "data": [
    {"smiles": "CC(C)(O/N=C(\\C(=O)N[C@@H]1C(=O)N2C(C(=O)[O-])=C(C[n+]3ccccc3)CS[C@H]12)c1csc(N)n1)C(=O)O", "note": "[Ceftazidime]", "values": [
      {"measurement": "MIC", "setting": "E. coli ATCC25922 [1]", "value": "< 0.125", "unit": "µg/mL"},
      {"measurement": "MIC", "setting": "E. coli ATCC35218", "value": "< 0.125", "unit": "µg/mL"},
      {"measurement": "MIC", "setting": "K. pneumoniae ATCC13883 [2]", "value": "< 0.125", "unit": "µg/mL"},
      {"measurement": "MIC", "setting": "NDM-1 E. coli XJ141015 [3]", "value": "> 256", "unit": "µg/mL"},
      {"measurement": "MIC", "setting": "NDM-1 E. coli XJ141026 [4]", "value": "> 256", "unit": "µg/mL"},
      {"measurement": "MIC", "setting": "NDM-1 E. coli XJ141047 [5]", "value": "> 256", "unit": "µg/mL"},
      {"measurement": "MIC", "setting": "[6]", "value": "> 256", "unit": "µg/mL"},
      {"measurement": "MIC", "setting": "[7]", "value": "> 256", "unit": "µg/mL"},
      {"measurement": "MIC", "setting": "[8]", "value": "> 256", "unit": "µg/mL"},
      {"measurement": "MIC", "setting": "[9]", "value": "> 256", "unit": "µg/mL"},
      {"measurement": "MIC", "setting": "E. coli ATCC25922 [10]; Escherichia coli, ATCC25922", "value": "≤ 1", "unit": "µg/mL"},
      {"measurement": "susceptibility class (MIC)", "setting": "E. coli ATCC25922 [10]", "value": "S"},
      {"measurement": "MIC", "setting": "K. pneumoniae ATCC13883 [11]; Klebsiella pneumoniae, ATCC13883", "value": "≤ 1", "unit": "µg/mL"},
      {"measurement": "susceptibility class (MIC)", "setting": "K. pneumoniae ATCC13883 [11]", "value": "S"},
      {"measurement": "MIC", "setting": "NDM-1 E. coli XJ141015 [12]; Escherichia coli", "value": "> 16", "unit": "µg/mL"},
      {"measurement": "susceptibility class (MIC)", "setting": "NDM-1 E. coli XJ141015 [12]", "value": "R"},
      {"measurement": "MIC", "setting": "NDM-1 E. coli XJ141026 [13]; Escherichia coli", "value": "> 16", "unit": "µg/mL"},
      {"measurement": "susceptibility class (MIC)", "setting": "NDM-1 E. coli XJ141026 [13]", "value": "R"},
      {"measurement": "MIC", "setting": "NDM-1 E. coli XJ141047 [14]; Escherichia coli", "value": "> 16", "unit": "µg/mL"},
      {"measurement": "susceptibility class (MIC)", "setting": "NDM-1 E. coli XJ141047 [14]", "value": "R"},
      {"measurement": "MIC", "setting": "[15]; Klebsiella pneumoniae", "value": "> 16", "unit": "µg/mL"},
      {"measurement": "susceptibility class (MIC)", "setting": "[15]", "value": "R"},
      {"measurement": "MIC", "setting": "[16]; Klebsiella pneumoniae", "value": "> 16", "unit": "µg/mL"},
      {"measurement": "susceptibility class (MIC)", "setting": "[16]", "value": "R"},
      {"measurement": "MIC", "setting": "[17]; Klebsiella pneumoniae", "value": "> 16", "unit": "µg/mL"},
      {"measurement": "susceptibility class (MIC)", "setting": "[17]", "value": "R"},
      {"measurement": "MIC", "setting": "[18]; Klebsiella pneumoniae", "value": "> 16", "unit": "µg/mL"},
      {"measurement": "susceptibility class (MIC)", "setting": "[18]", "value": "R"}
    ]},
    {"smiles": "O=S(=O)([O-])[O-].[Zn+2]", "note": "[ZnSO4]", "values": [
      {"measurement": "NDM-1 residual activity %", "setting": "NDM-1; ZnSO4 0.1 μM, replicate 1", "value": 15.22, "unit": "%"},
      {"measurement": "NDM-1 residual activity %", "setting": "NDM-1; ZnSO4 0.1 μM, replicate 2", "value": 16.97, "unit": "%"},
      {"measurement": "NDM-1 residual activity %", "setting": "NDM-1; ZnSO4 0.1 μM, replicate 3", "value": 15.04, "unit": "%"},
      {"measurement": "NDM-1 residual activity %", "setting": "NDM-1; ZnSO4 1 μM, replicate 1", "value": 27.47, "unit": "%"},
      {"measurement": "NDM-1 residual activity %", "setting": "NDM-1; ZnSO4 1 μM, replicate 2", "value": 23.22, "unit": "%"},
      {"measurement": "NDM-1 residual activity %", "setting": "NDM-1; ZnSO4 1 μM, replicate 3", "value": 15.46, "unit": "%"},
      {"measurement": "NDM-1 residual activity %", "setting": "NDM-1; ZnSO4 5 μM, replicate 1", "value": 28.32, "unit": "%"},
      {"measurement": "NDM-1 residual activity %", "setting": "NDM-1; ZnSO4 5 μM, replicate 2", "value": 25.17, "unit": "%"},
      {"measurement": "NDM-1 residual activity %", "setting": "NDM-1; ZnSO4 5 μM, replicate 3", "value": 26.96, "unit": "%"},
      {"measurement": "NDM-1 residual activity %", "setting": "NDM-1; ZnSO4 10 μM, replicate 1", "value": 32.34, "unit": "%"},
      {"measurement": "NDM-1 residual activity %", "setting": "NDM-1; ZnSO4 10 μM, replicate 2", "value": 29.63, "unit": "%"},
      {"measurement": "NDM-1 residual activity %", "setting": "NDM-1; ZnSO4 10 μM, replicate 3", "value": 36.06, "unit": "%"},
      {"measurement": "NDM-1 residual activity %", "setting": "NDM-1; ZnSO4 50 μM, replicate 1", "value": 43.28, "unit": "%"},
      {"measurement": "NDM-1 residual activity %", "setting": "NDM-1; ZnSO4 50 μM, replicate 2", "value": 51.47, "unit": "%"},
      {"measurement": "NDM-1 residual activity %", "setting": "NDM-1; ZnSO4 50 μM, replicate 3", "value": 61.34, "unit": "%"},
      {"measurement": "NDM-1 residual activity %", "setting": "NDM-1; ZnSO4 100 μM, replicate 1", "value": 56.06, "unit": "%"},
      {"measurement": "NDM-1 residual activity %", "setting": "NDM-1; ZnSO4 100 μM, replicate 2", "value": 59.92, "unit": "%"},
      {"measurement": "NDM-1 residual activity %", "setting": "NDM-1; ZnSO4 100 μM, replicate 3", "value": 88.19, "unit": "%"},
      {"measurement": "NDM-1 residual activity %", "setting": "NDM-1; ZnSO4 200 μM, replicate 1", "value": 61.18, "unit": "%"},
      {"measurement": "NDM-1 residual activity %", "setting": "NDM-1; ZnSO4 200 μM, replicate 2", "value": 100.32, "unit": "%"},
      {"measurement": "NDM-1 residual activity %", "setting": "NDM-1; ZnSO4 200 μM, replicate 3", "value": 93.90, "unit": "%"},
      {"measurement": "NDM-1 residual activity %", "setting": "NDM-1; ZnSO4 400 μM, replicate 1", "value": 95.69, "unit": "%"},
      {"measurement": "NDM-1 residual activity %", "setting": "NDM-1; ZnSO4 400 μM, replicate 2", "value": 105.75, "unit": "%"},
      {"measurement": "NDM-1 residual activity %", "setting": "NDM-1; ZnSO4 400 μM, replicate 3", "value": 98.26, "unit": "%"},
      {"measurement": "NDM-1 residual activity %", "setting": "NDM-1; ZnSO4 800 μM, replicate 1", "value": 94.91, "unit": "%"},
      {"measurement": "NDM-1 residual activity %", "setting": "NDM-1; ZnSO4 800 μM, replicate 2", "value": 111.23, "unit": "%"},
      {"measurement": "NDM-1 residual activity %", "setting": "NDM-1; ZnSO4 800 μM, replicate 3", "value": 106.26, "unit": "%"}
    ]}
  ]
}
